Experiment [1] deals with T1, Smo receptor (Homo sapiens, UniProt Q99835).
T1 construct: expressed in transfected cells; host or cells: FlpIN293 (HEK293-derived)
In words: Saturation binding of Bodipy-Cyclopamine to stable Smo-FLAG transfected cell line clone 3-5. As for the experimental part:
(§1) The interaction of compounds with the Smo receptor was tested by a displacement binding assay using fluorescent ligand for the Smo receptor (Bodipy-Cyclopamine, Toronto Research Chemical Inc, cat#B674800) as the labeled ligand to be displaced.
(§2) In order to determine the Kd (concentration of the ligand where 50% of the maximal binding is reached) and the Bmax (maximal amount of ligand which can bind specifically to the receptor in a biological preparation) of the fluorescent ligand, the Specific Binding (SB) was calculated by subtraction Non Specific Binding (NSB) from Total Binding (TB). The TB was determined by adding increasing concentration of Bodipy-Cyclopamine to the cells, while the NSB was determined by adding a mixture of increasing concentration of Bodipy-Cyclopamine with a saturating concentration of an well described antagonist (in this case, N-[3-(1H-benzimidazol-2-yl)-4-chlorophenyl]-3,5-dimethoxy-benzamide (Rubin et al. WO2003011219) at 10 μM was selected) to the cells. For each concentration of Bodipy-Cyclopamine, the SB was calculated by subtracting the value of NSB from TB. From the SB curve Bmax and Kd were calculated. […] The Ki is the concentration of non labeled ligand which inhibits 50% of the specific binding (SB) of the labeled ligand, and corrected for the effective used concentration of the labeled ligand. […]

Experiment [2] deals with 293FlpIN/clone E-3 mock transfected cells. The experiment can be described thus: Saturation binding of Bodipy-Cyclopamine to stable mock transfected cell line clone E-3. On the set-up: species or system human. As for the experimental part: as §1, §2

T1 sequence (Q99835 28-787): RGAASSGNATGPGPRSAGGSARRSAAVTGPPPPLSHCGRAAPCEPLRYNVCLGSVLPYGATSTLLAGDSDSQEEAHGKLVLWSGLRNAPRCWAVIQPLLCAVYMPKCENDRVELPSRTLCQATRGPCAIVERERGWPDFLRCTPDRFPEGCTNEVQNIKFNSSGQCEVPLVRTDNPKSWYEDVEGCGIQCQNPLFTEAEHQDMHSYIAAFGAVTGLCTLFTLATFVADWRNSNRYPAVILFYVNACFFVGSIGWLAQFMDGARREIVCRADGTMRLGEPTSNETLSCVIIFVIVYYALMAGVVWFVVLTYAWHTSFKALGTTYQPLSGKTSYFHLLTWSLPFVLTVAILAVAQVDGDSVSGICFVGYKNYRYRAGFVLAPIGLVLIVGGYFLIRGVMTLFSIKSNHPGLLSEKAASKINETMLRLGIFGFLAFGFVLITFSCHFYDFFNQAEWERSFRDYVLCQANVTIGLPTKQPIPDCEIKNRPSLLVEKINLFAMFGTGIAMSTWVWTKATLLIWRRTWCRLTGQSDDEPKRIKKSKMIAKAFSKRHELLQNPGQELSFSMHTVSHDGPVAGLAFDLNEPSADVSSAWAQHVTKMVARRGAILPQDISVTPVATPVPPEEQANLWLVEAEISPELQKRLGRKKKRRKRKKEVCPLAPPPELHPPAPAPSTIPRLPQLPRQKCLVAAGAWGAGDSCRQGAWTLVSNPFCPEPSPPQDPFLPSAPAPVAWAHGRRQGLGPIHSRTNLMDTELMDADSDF

With Bodipy-Cyclopamine, the Kd (as a rule, a measure of binding affinity in units of concentration) in experiment [1] was 44.3 nM; in experiment [2] it was 115 nM.

The values above are taken from patent US8592463B2, “Hedgehog pathway antagonists and therapeutic applications thereof” (Siena Biotech S.p.A., priority 2007, dated 2013).
